Reference: patent US20220081434A1, “DIHYDROISOQUINOLINE COMPOUND” (SUZHOU ARK BIOPHARMACEUTICAL CO., LTD., priority 2019, published 2022)
Where two headings read alike, the source gives them in different places.

Experiments:
[1] = tested on: hepatitis B surface antigen (HBsAg); assay: Determination of hepatitis B surface antigen (HBsAg) in HepG2.2.15 cell supernatant; assay type: cell-based, hepatitis B virus (HepG2.2.15 cells); settings: Hepatitis B virus, HepG2.2.15, 96 h, read-out: HBsAg inhibitory activity IC50
Experimental: (§1) The full genome of HBV was inserted into an […] cell, which could therefore express HBV continuously (Sells et al, Proc Natl Acad Sci USA. 1987 February; 84 (4):1005-9). The culture condition was DMEM medium containing 10% serum and […] G418. Cells were placed in an incubator containing 5% CO2 and cultured at 37° C.
HepG2.2.15 cells were seeded into a 96-well culture plate at a density of 3×10^4 cells/well. On the next day, the drug dissolved in DMSO was subjected to a 5-fold dilution and then added to the cells. 0.5% DMSO was added separately as control. The supernatant was collected after 4 days of drug action, and the content of hepatitis B surface antigen was determined.
The determination of hepatitis B surface antigen was carried out by using a kit for quantitative determination of hepatitis B virus surface antigen (chemiluminescence method). The specific operations were as follows. 50 μL cell culture supernatant was taken and transferred to the assay plate. 50 μL of enzyme-linked reagent was added thereto and the assay plate was sealed. Incubation was carried out at room temperature for 1 hour. Afterwards, the assay plate was washed six times with PBS, and finally, the residual liquid was removed by shaking the plate. 25 μL of substrates A and B were added respectively, and the determination was conducted by using a microplate reader (Tecan Infinite® F200) after ten minutes of reaction. IC50 was calculated after fitting the dose-response curve.

[2] = Pharmacokinetic experiments in ICR mice (plasma); assay type: in vivo; settings: for AUC(0-t): read-out: AUC0-12
Experimental: Multiple compounds in the Examples of the present disclosure were administered to ICR mice to conduct pharmacokinetic experiments. A single intravenous injection (with a dose of 2 mg/kg) and a single oral administration (with a dose of 10 mg/kg) were administered respectively. Blood was respectively collected prior to administration and 5 minutes, 15 minutes, 30 minutes, 1 hour, 2 hours, 4 hours, 8 hours, 12 hours and 24 hours after administration, and the concentration of the test compound in plasma was determined. Plasma pharmacokinetic data of the control compound (obtained from Example 28 in patent WO2018130152 A1) and the compounds of Examples 10 and 19 in the present disclosure in mice were as shown in the following Table 5 to Table 7.

HBV DNA = assay: Determination of HBV DNA in HepG2.2.15 cell supernatant by qPCR; assay type: cell-based, hepatitis B virus (HepG2.2.15 cells); settings: Hepatitis B virus, 168 h, HepG2.2.15 cells, supernatant after a total of 7 days of drug action, read-out: Inhibitory activity against HBV DNA IC50
Experimental: as §1
HepG2.2.15 cells were seeded into a 96-well culture plate at a density of 4×10^4 cells/well. After 4 hours, the drug dissolved in DMSO was subjected to a 4-fold dilution and then added to cells. 0.5% DMSO was added separately as control. On the 4th day of drug action, the original supernatant was removed and then the drug was added thereto again. The supernatant was collected after a total of 7 days of drug action and treated with lysis buffer. The determination of hepatitis B DNA was carried out by real-time fluorescence-based quantitative polymerase chain reaction (qPCR). After the completion of the qPCR, data were exported from the instrument and analyzed, and IC50 indicating antiviral activity was calculated after fitting the dose-response curve.

[3] = mouse, single intravenous injection 2 mg/kg, plasma
[4] = mouse, single oral administration 10 mg/kg, plasma

## CNC(=O)c1ncc(-c2cc3c(cc2OC)-c2cc(=O)c(C(=O)O)cn2C(C(C)(C)C)C3)s1 (stereo not shown) [Example 19, 6-tert-butyl-10-methoxy-9-[2-(methylcarbamoyl)thiazol-5-yl]-2-oxo-6,7-dihydro-2H-pyrido[2,1-a]isoquinoline-3-carboxylic Acid]
[1]
  IC50: 300 pM
[2]; mouse, plasma, oral 10 mg/kg vs intravenous 2 mg/kg, read-out: F (bioavailability)
  bioavailability: 87%
[2]; [3]
  AUC(0-inf): 1210 ng·h/mL
  Cmax: 1020 ng/mL
  Tmax: 4.8 min
  clearance: 27.6 mL/min/kg
  half-life: 78 min
  AUC(0-t): 1200 ng·h/mL
[2]; mouse, single intravenous injection 2 mg/kg, plasma, read-out: Vss
  Vd: 2.27 L/kg
[2]; [4]
  AUC(0-inf): 5290 ng·h/mL
  Cmax: 2420 ng/mL
  Tmax: 30 min
  half-life: 150 min
  AUC(0-t): 5210 ng·h/mL
[2]; same dose, after intravenous injection and oral administration
  plasma exposure compared with the control compound: significantly higher

## COc1cc2c(cc1-c1cnc(N3CCC(O)CC3)s1)CC(C(C)(C)C)n1cc(C(=O)O)c(=O)cc1-2 (stereo not shown) [Example 1, 6-tert-butyl-9-[2-(4-hydroxypiperidin-1-yl)thiazol-5-yl]-10-methoxy-2-oxo-6,7-dihydro-2H-pyrido[2,1-a]isoquinoline-3-carboxylic Acid]
[1]
  IC50: 330 pM

## COc1ncc(-c2cc3c(cc2OC)-c2cc(=O)c(C(=O)O)cn2C(C(C)(C)C)C3)s1 (stereo not shown) [Example 12, 6-tert-butyl-10-methoxy-9-(2-methoxythiazol-5-yl)-2-oxo-6,7-dihydro-2H-pyrido[2,1-a]isoquinoline-3-carboxylic Acid]
[1]
  IC50: 450 pM

## COc1cc2c(cc1-c1cnc(C3CC(F)C3)s1)CC(C(C)(C)C)n1cc(C(=O)O)c(=O)cc1-2 (stereo not shown) [Example 26, 6-tert-butyl-9-[2-(3-fluorocyclobutyl)thiazol-5-yl]-10-methoxy-2-oxo-6,7-dihydro-2H-pyrido[2,1-a]isoquinoline-3-carboxylic Acid]
[1]
  IC50: 100 pM

## COc1cc2c(cc1-c1cnc(N3CCC(CO)CC3)s1)CC(C(C)(C)C)n1cc(C(=O)O)c(=O)cc1-2 (stereo not shown) [Example 2, 6-tert-butyl-9-{2-[4-(hydroxymethyl)piperidin-1-yl]thiazol-5-yl}-10-methoxy-2-oxo-6,7-dihydro-2H-pyrido[2,1-a]isoquinoline-3-carboxylic Acid]
[1]
  IC50: 60 pM
HBV DNA
  IC50: 110 pM

## COc1cc2c(cc1-c1cnc(N3CCOCC3)s1)CC(C(C)(C)C)n1cc(C(=O)O)c(=O)cc1-2 (stereo not shown) [Example 5, 6-tert-butyl-10-methoxy-9-(2-morpholinothiazol-5-yl)-2-oxo-6,7-dihydro-2H-pyrido[2,1-a]isoquinoline-3-carboxylic Acid]
[1]
  IC50: 300 pM

## COc1cc2c(cc1-c1cnc(N(C)C)s1)CC(C(C)(C)C)n1cc(C(=O)O)c(=O)cc1-2 (stereo not shown) [Example 6, 6-tert-butyl-9-[2-(dimethylamino)thiazol-5-yl]-10-methoxy-2-oxo-6,7-dihydro-2H-pyrido[2,1-a]isoquinoline-3-carboxylic Acid]
[1]
  IC50: 300 pM

## COc1cc2c(cc1-c1cnc(COC(F)F)s1)CC(C(C)(C)C)n1cc(C(=O)O)c(=O)cc1-2 (stereo not shown) [Example 23, 6-tert-butyl-9-{2-[(difluoromethoxy)methyl]thiazol-5-yl}-10-methoxy-2-oxo-6,7-dihydro-2H-pyrido[2,1-a]isoquinoline-3-carboxylic Acid]
[1]
  IC50: 200 pM
HBV DNA
  IC50: 840 pM

## COCCNC(=O)c1ncc(-c2cc3c(cc2OC)-c2cc(=O)c(C(=O)O)cn2C(C(C)(C)C)C3)s1 (stereo not shown) [Example 22, 6-tert-butyl-10-methoxy-9-{2-[(2-methoxyethyl)carbamoyl]thiazol-5-yl}-2-oxo-6,7-dihydro-2H-pyrido[2,1-a]isoquinoline-3-carboxylic Acid]
[1]
  IC50: 400 pM

## COc1cc2c(cc1-c1cnc(C3CC(OC)C3)s1)CC(C(C)(C)C)n1cc(C(=O)O)c(=O)cc1-2 (stereo not shown) [Example 27, 6-tert-butyl-10-methoxy-9-[2-(3-methoxycyclobutyl)thiazol-5-yl]-2-oxo-6,7-dihydro-2H-pyrido[2,1-a]isoquinoline-3-carboxylic Acid]
[1]
  IC50: 100 pM

## COCCOc1ncc(-c2cc3c(cc2OC)-c2cc(=O)c(C(=O)O)cn2C(C(C)(C)C)C3)s1 (stereo not shown) [Example 21, 6-tert-butyl-10-methoxy-9-[2-(2-methoxyethoxy)thiazol-5-yl]-2-oxo-6,7-dihydro-2H-pyrido[2,1-a]isoquinoline-3-carboxylic Acid]
[1]
  IC50: 300 pM

## CCCc1ncc(-c2cc3c(cc2OC)-c2cc(=O)c(C(=O)O)cn2C(C(C)(C)C)C3)s1 (stereo not shown) [Example 18, 6-tert-butyl-10-methoxy-2-oxo-9-(2-propylthiazol-5-yl)-6,7-dihydro-2H-pyrido[2,1-a]isoquinoline-3-carboxylic Acid]
[1]
  IC50: 90 pM
HBV DNA
  IC50: 60 pM

## COc1cc2c(cc1-c1cnc(C3CC(F)(F)C3)s1)CC(C(C)(C)C)n1cc(C(=O)O)c(=O)cc1-2 (stereo not shown) [Example 25, 6-tert-butyl-9-[2-(3,3-difluorocyclobutyl)thiazol-5-yl]-10-methoxy-2-oxo-6,7-dihydro-2H-pyrido[2,1-a]isoquinoline-3-carboxylic Acid]
[1]
  IC50: 240 pM

## CCOCc1ncc(-c2cc3c(cc2OC)-c2cc(=O)c(C(=O)O)cn2C(C(C)(C)C)C3)s1 (stereo not shown) [Example 14, 6-tert-butyl-9-[2-(ethoxymethyl)thiazol-5-yl]-10-methoxy-2-oxo-6,7-dihydro-2H-pyrido[2,1-a]isoquinoline-3-carboxylic Acid]
[1]
  IC50: 200 pM

## COc1cc2c(cc1-c1cnc(COC3CC3)s1)CC(C(C)(C)C)n1cc(C(=O)O)c(=O)cc1-2 (stereo not shown) [Example 24, 6-tert-butyl-9-[2-(cyclopropoxymethyl)thiazol-5-yl]-10-methoxy-2-oxo-6,7-dihydro-2H-pyrido[2,1-a] isoquinoline-3-carboxylic Acid]
[1]
  IC50: 200 pM
HBV DNA
  IC50: 450 pM

## COc1cc2c(cc1-c1cnc(C(C)OC)s1)CC(C(C)(C)C)n1cc(C(=O)O)c(=O)cc1-2 (stereo not shown) [Example 15, 6-tert-butyl-10-methoxy-9-[2-(1-methoxyethyl)thiazol-5-yl]-2-oxo-6,7-dihydro-2H-pyrido[2,1-a]isoquinoline-3-carboxylic Acid]
[1]
  IC50: 200 pM

## COc1cc2c(cc1-c1cnc(N3CCC3)s1)CC(C(C)(C)C)n1cc(C(=O)O)c(=O)cc1-2 (stereo not shown) [Example 3, 9-[2-(azetidin-1-yl)thiazol-5-yl]-6-tert-butyl-10-methoxy-2-oxo-6,7-dihydro-2H-pyrido[2,1-a]isoquinoline-3-carboxylic Acid]
[1]
  IC50: 70 pM

## CCNC(=O)c1ncc(-c2cc3c(cc2OC)-c2cc(=O)c(C(=O)O)cn2C(C(C)(C)C)C3)s1 (stereo not shown) [Example 20, 6-tert-butyl-9-[2-(ethylcarbamoyl)thiazol-5-yl]-10-methoxy-2-oxo-6,7-dihydro-2H-pyrido[2,1-a]isoquinoline-3-carboxylic Acid]
[1]
  IC50: 300 pM

## COc1cc2c(cc1-c1cnc(C(C)O)s1)CC(C(C)(C)C)n1cc(C(=O)O)c(=O)cc1-2 (stereo not shown) [Example 16, 6-tert-butyl-9-[2-(1-hydroxyethyl)thiazol-5-yl]-10-methoxy-2-oxo-6,7-dihydro-2H-pyrido[2,1-a]isoquinoline-3-carboxylic Acid]
[1]
  IC50: 100 pM
HBV DNA
  IC50: 410 pM

## COc1cc2c(cc1-c1cnc(N3CCC(OC)CC3)s1)CC(C(C)(C)C)n1cc(C(=O)O)c(=O)cc1-2 (stereo not shown) [Example 8, 6-tert-butyl-10-methoxy-9-[2-(4-methoxypiperidin-1-yl)thiazol-5-yl]-2-oxo-6,7-dihydro-2H-pyrido[2,1-a]isoquinoline-3-carboxylic Acid]
[1]
  IC50: 200 pM

## COc1cc2c(cc1-c1cnc(C(C)(C)OC)s1)CC(C(C)(C)C)n1cc(C(=O)O)c(=O)cc1-2 (stereo not shown) [Example 17, 6-tert-butyl-10-methoxy-9-[2-(2-methoxypropan-2-yl)thiazol-5-yl]-2-oxo-6,7-dihydro-2H-pyrido[2,1-a]isoquinoline-3-carboxylic Acid]
[1]
  IC50: 300 pM
